Data as given in US7615231B2, “Methods for enhancing the morphology, tone, texture and/or appearance of skin or hair using a meadowlactone” (Fan Tech, Ltd., priority 2005, dated 2009).

Legend:
[1] = Analytical results on purified Meadowlactone (stability); format: physicochemical
Source text: The purified Meadowlactone was identified and subsequently quantified by infrared spectroscopy and HPLC coupled with an evaporative light-scattering detector.

[2] = system: skin; test: Initial use trials of skin creams containing the Meadowlactone; format: in vivo
[3] = Solubility of the Meadowlactone as a function of pH in aqueous systems; format: physicochemical
Method: Solubility of the Meadowlactone as a function of pH was determined in aqueous systems.
In these experiments, 2 weight percent of Meadowlactone was mixed with water at room temperature. The pH of this mixture was varied, starting at an acidic pH and terminating at an alkaline pH. The clarity of the mixture was observed, and the mixture was photographed, at different pH levels (varying by one pH unit at a time).

CCCCCCCCCCCCCCCC1CCCC(=O)O1 (stereo not shown) [Meadowlactone, Meadowfoam Delta Lactone]
stability [1]: extended stability
skin moisturization [2]: very effective
oil / water solubility of the isomeric structures ([3]; 2 weight percent in water at room temperature, pH varied from acidic to alkaline, clarity observed): oil soluble
forms present at the pH reported for human skin ([3]; pH from about 4.5 to about 5.5): both the Meadowlactone and the 5-hydroxy fatty acid exist together in equilibrium
